Among the data in patent publication US8153817B2, “Synthesis of methyl nonactate derivatives” (Ohio University, priority 2006, dated 2012) are MIC values, retold here.

In brackets after ≈: the same amount, converted by molar mass.

As a reminder, the MIC is the lowest concentration that inhibits growth of the organism.

In one assay the test system is B. subtilis. The experiment in a line: MIC screen against B. subtilis. Format: cell-based. As to conditions: Bacillus subtilis; B. subtilis (gram positive); read-out: MIC against B. subtilis. How it is done: In comparison ampicillin, which is an antibiotic in wide therapeutic use, has an MIC of 100 μM in this screen.
For the compound `CC1(C)S[C@@H]2[C@H](NC(=O)[C@H](N)c3ccccc3)C(=O)N2[C@H]1C(=O)O` [ampicillin, reference compound], the minimal inhibitory concentration (MIC) worked out at 100 µM (≈ 34.9 µg/mL).

Still in this assay, the particulars now being: Bacillus subtilis; Table 1, selected triazoloamides, B. subtilis; read-out: MIC.
As to `C[C@H](C(=O)NC1CCCCC1)[C@@H]1CC[C@H](C[C@@H](C)n2cc(CN3CCN(c4ccccc4)CC3)nn2)O1`, the minimum inhibitory concentration (MIC) worked out at 2000 µM (≈ 1020 µg/mL).
For the compound `C[C@H](C(=O)N1CCOCC1)[C@@H]1CC[C@H](C[C@@H](C)n2cc(CN3CCN(c4ccccc4)CC3)nn2)O1`, the minimal inhibitory concentration (MIC) amounted to 2000 µM (≈ 993 µg/mL).
Turning to `C[C@@H](C(=O)N(C)Cc1ccccc1)[C@H]1CC[C@@H](C[C@H](C)n2cc(CN3CCN(c4ccccc4)CC3)nn2)O1`, the MIC came out at 1000 µM (≈ 531 µg/mL).
With `C[C@H](C(=O)NCCc1ccccc1)[C@@H]1CC[C@H](C[C@@H](C)n2cc(-c3ccccc3)nn2)O1`, the MIC is 250 µM (≈ 108 µg/mL).
`C[C@H](C(=O)N1CCN(c2ccccc2)CC1)[C@@H]1CC[C@H](C[C@@H](C)n2cc(CN3CCN(c4ccccc4)CC3)nn2)O1`: the MIC turned out to be 4000 µM (≈ 2290 µg/mL).
Take `C[C@H](C(=O)Nc1ccccc1)[C@@H]1CC[C@H](C[C@@H](C)n2cc(CN3CCC(c4ccccc4)CC3)nn2)O1`: the minimal inhibitory concentration (MIC) came to 500 µM (≈ 251 µg/mL).
Regarding `C[C@H](C(=O)NC1CCCC1)[C@@H]1CC[C@H](C[C@@H](C)n2cc(CN3CCN(c4ccccc4)CC3)nn2)O1`, the minimum inhibitory concentration (MIC) came to 2000 µM (≈ 989 µg/mL).
In the case of `COc1ccc(NC(=O)[C@@H](C)[C@@H]2CC[C@H](C[C@@H](C)n3cc(-c4ccccc4)nn3)O2)cc1`, the MIC was 1000 µM (≈ 435 µg/mL).
Same read-out and setting: next, `COc1ccc(CNC(=O)[C@@H](C)[C@@H]2CC[C@H](C[C@@H](C)n3cc(CN4CCC(c5ccccc5)CC4)nn3)O2)cc1`: 1000 µM (≈ 546 µg/mL); `C[C@H](C(=O)N(C)C)[C@@H]1CC[C@H](C[C@@H](C)n2cc(-c3ccccc3)nn2)O1`: 4000 µM (≈ 1430 µg/mL).
